Test results reported in PubChem BioAssay (NCI).
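A five-concentration, 48-hour dose response in 96-well plates underlies each endpoint, interpolated linearly between surrounding concentrations. At the TGI there is no net growth.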

Tests used:
Experiment in all cases: NCI-60 cell line screen, 48 h
786-0 renal = test system: 786-0 renal
A498 renal = test system: A498 renal
ACHN renal = test system: ACHN renal
BT-549 breast = test system: BT-549 breast
CAKI-1 renal = test system: CAKI-1 renal
COLO 205 colon = test system: COLO 205 colon
DU-145 prostate = test system: DU-145 prostate
EKVX NSCLC = test system: EKVX NSCLC
HCC-2998 colon = test system: HCC-2998 colon
HCT-116 colon = test system: HCT-116 colon
HCT-15 colon = test system: HCT-15 colon
HL-60(TB) leukemia = test system: HL-60(TB) leukemia
HOP-62 NSCLC = test system: HOP-62 NSCLC
HS 578T breast = test system: HS 578T breast
HT29 colon = test system: HT29 colon
IGROV1 ovarian = test system: IGROV1 ovarian
K-562 leukemia = test system: K-562 leukemia
KM12 colon = test system: KM12 colon
LOX IMVI melanoma = test system: LOX IMVI melanoma
MALME-3M melanoma = test system: MALME-3M melanoma
MCF7 breast = test system: MCF7 breast
MDA-MB-231 breast = test system: MDA-MB-231 breast
MDA-MB-435 = test system: MDA-MB-435
MDA-N = test system: MDA-N
MOLT-4 leukemia = test system: MOLT-4 leukemia
NCI-H226 lung = test system: NCI-H226 lung
NCI-H23 lung = test system: NCI-H23 lung
NCI-H460 lung = test system: NCI-H460 lung
NCI-H522 lung = test system: NCI-H522 lung
NCI/ADR-RES ovarian = test system: NCI/ADR-RES ovarian
OVCAR-3 ovarian = test system: OVCAR-3 ovarian
OVCAR-4 ovarian = test system: OVCAR-4 ovarian
OVCAR-5 ovarian = test system: OVCAR-5 ovarian
OVCAR-8 ovarian = test system: OVCAR-8 ovarian
PC-3 prostate = test system: PC-3 prostate
RPMI-8226 leukemia = test system: RPMI-8226 leukemia
RXF 393 renal = test system: RXF 393 renal
SF-268 CNS = test system: SF-268 CNS
SF-295 CNS = test system: SF-295 CNS
SF-539 CNS = test system: SF-539 CNS
SK-MEL-2 melanoma = test system: SK-MEL-2 melanoma
SK-MEL-28 melanoma = test system: SK-MEL-28 melanoma
SK-MEL-5 melanoma = test system: SK-MEL-5 melanoma
SN12C renal = test system: SN12C renal
SNB-19 CNS = test system: SNB-19 CNS
SNB-75 CNS = test system: SNB-75 CNS
SR leukemia = test system: SR leukemia
SW-620 colon = test system: SW-620 colon
TK-10 renal = test system: TK-10 renal
U251 CNS = test system: U251 CNS
UACC-257 melanoma = test system: UACC-257 melanoma
UACC-62 melanoma = test system: UACC-62 melanoma
UO-31 renal = test system: UO-31 renal
A549 NSCLC = test system: A549 NSCLC
HOP-92 NSCLC = test system: HOP-92 NSCLC
M14 melanoma = test system: M14 melanoma
SK-OV-3 ovarian = test system: SK-OV-3 ovarian

Q: What does the source list for CC(C)[C@@H](C)[C@@]1(C)C[C@@H]1[C@@H](C)[C@H]1CC[C@@H]([C@@H]2CC=C3C[C@@H](O)CC[C@]3(C)C2=O)[C@]1(C)CCO?
A: TGI (786-0 renal): 17.2 µM; TGI (A498 renal): 28.7 µM; TGI (ACHN renal): 25 µM; TGI (BT-549 breast): 30.3 µM; TGI (CAKI-1 renal): 25.4 µM; TGI (COLO 205 colon): 24.3 µM; TGI (DU-145 prostate): 28.7 µM; TGI (EKVX NSCLC): 26 µM; TGI (HCC-2998 colon): 16.4 µM; TGI (HCT-116 colon): 21.6 µM; TGI (HCT-15 colon): 17.4 µM; TGI (HL-60(TB) leukemia): 5.2 µM; TGI (HOP-62 NSCLC): 31.2 µM; TGI (HS 578T breast): 25.2 µM; TGI (HT29 colon): 7.39 µM; TGI (IGROV1 ovarian): 29.8 µM; TGI (K-562 leukemia): 18 µM; TGI (KM12 colon): 13 µM; TGI (LOX IMVI melanoma): 15.4 µM; TGI (MALME-3M melanoma): 27.4 µM; TGI (MCF7 breast): 22.8 µM; TGI (MDA-MB-231 breast): 28 µM; TGI (MDA-MB-435): 24.3 µM; TGI (MDA-N): 26.1 µM; TGI (MOLT-4 leukemia): 19.3 µM; TGI (NCI-H226 lung): 26.8 µM; TGI (NCI-H23 lung): 27.2 µM; TGI (NCI-H460 lung): 3.32 µM; TGI (NCI-H522 lung): 19.8 µM; TGI (NCI/ADR-RES ovarian): 26.6 µM; TGI (OVCAR-3 ovarian): 25.6 µM; TGI (OVCAR-4 ovarian): 24.8 µM; TGI (OVCAR-5 ovarian): 23.8 µM; TGI (OVCAR-8 ovarian): 25.5 µM; TGI (PC-3 prostate): 21.8 µM; TGI (RPMI-8226 leukemia): 52 µM; TGI (RXF 393 renal): 11.5 µM; TGI (SF-268 CNS): 30.3 µM; TGI (SF-295 CNS): 21.2 µM; TGI (SF-539 CNS): 25.3 µM; TGI (SK-MEL-2 melanoma): 33.3 µM; TGI (SK-MEL-28 melanoma): 20.1 µM; TGI (SK-MEL-5 melanoma): 26.4 µM; TGI (SN12C renal): 25.5 µM; TGI (SNB-19 CNS): 25.1 µM; TGI (SNB-75 CNS): 17.9 µM; TGI (SR leukemia): 13.3 µM; TGI (SW-620 colon): 20.1 µM; TGI (TK-10 renal): 23.6 µM; TGI (U251 CNS): 23 µM; TGI (UACC-257 melanoma): 27.4 µM; TGI (UACC-62 melanoma): 27.7 µM; TGI (UO-31 renal): 28.5 µM

Q: CN(C)c1ccc(/C=C/c2cc(-c3ccccc3)[n+](C)n2-c2ccccc2)cc1 was tested. Which TGI (786-0 renal) did it give?
A: 23 µM

Q: What about the TGI (A498 renal) of the same compound?
A: 14.5 µM

Q: And the TGI (A549 NSCLC)?
A: 23.2 µM

Q: What about the TGI (ACHN renal) of the same compound?
A: 16 µM

Q: And the TGI (BT-549 breast)?
A: 0.613 µM

Q: What about the TGI (CAKI-1 renal) of the same compound?
A: 13 µM

Q: And the TGI (COLO 205 colon)?
A: 0.42 µM

Q: And the TGI (DU-145 prostate)?
A: 22.7 µM

Q: What about the TGI (EKVX NSCLC) of the same compound?
A: 10.8 µM

Q: And the TGI (HCC-2998 colon)?
A: 56.4 µM

Q: What about the TGI (HCT-116 colon) of the same compound?
A: 14.1 µM

Q: What about the TGI (HCT-15 colon) of the same compound?
A: 14.5 µM

Q: What about the TGI (HL-60(TB) leukemia) of the same compound?
A: 0.128 µM

Q: And the TGI (HOP-62 NSCLC)?
A: 12.4 µM

Q: And the TGI (HOP-92 NSCLC)?
A: 16.6 µM

Q: What about the TGI (HS 578T breast) of the same compound?
A: 0.248 µM

Q: What about the TGI (HT29 colon) of the same compound?
A: > 100 µM

Q: And the TGI (IGROV1 ovarian)?
A: 3.76 µM

Q: And the TGI (KM12 colon)?
A: 3.07 µM

Q: And the TGI (LOX IMVI melanoma)?
A: 14.2 µM

Q: And the TGI (M14 melanoma)?
A: > 34.7 µM

Q: And the TGI (MCF7 breast)?
A: > 33.3 µM

Q: And the TGI (MDA-MB-231 breast)?
A: 17.2 µM

Q: And the TGI (MDA-MB-435)?
A: 2.98 µM

Q: What about the TGI (MDA-N) of the same compound?
A: 13.6 µM

Q: What about the TGI (MOLT-4 leukemia) of the same compound?
A: 3.41 µM

Q: What about the TGI (NCI-H226 lung) of the same compound?
A: 71 µM

Q: And the TGI (NCI-H23 lung)?
A: 0.92 µM

Q: What about the TGI (NCI-H460 lung) of the same compound?
A: > 100 µM

Q: What about the TGI (NCI-H522 lung) of the same compound?
A: 0.318 µM

Q: What about the TGI (NCI/ADR-RES ovarian) of the same compound?
A: > 100 µM

Q: And the TGI (OVCAR-3 ovarian)?
A: 17.2 µM

Q: What about the TGI (OVCAR-4 ovarian) of the same compound?
A: > 69.2 µM

Q: And the TGI (OVCAR-5 ovarian)?
A: 30.8 µM

Q: And the TGI (PC-3 prostate)?
A: 3.27 µM

Q: What about the TGI (RPMI-8226 leukemia) of the same compound?
A: > 100 µM

Q: And the TGI (RXF 393 renal)?
A: 4.18 µM

Q: And the TGI (SF-268 CNS)?
A: 4.77 µM

Q: And the TGI (SF-295 CNS)?
A: 16.2 µM

Q: What about the TGI (SF-539 CNS) of the same compound?
A: 29 µM

Q: What about the TGI (SK-MEL-2 melanoma) of the same compound?
A: 0.953 µM

Q: And the TGI (SK-MEL-28 melanoma)?
A: > 34.6 µM

Q: What about the TGI (SK-MEL-5 melanoma) of the same compound?
A: 0.522 µM

Q: What about the TGI (SK-OV-3 ovarian) of the same compound?
A: 4.33 µM

Q: What about the TGI (SN12C renal) of the same compound?
A: 7.6 µM

Q: What about the TGI (SNB-19 CNS) of the same compound?
A: 11.3 µM

Q: And the TGI (SNB-75 CNS)?
A: 2.37 µM

Q: And the TGI (SR leukemia)?
A: > 30 µM

Q: And the TGI (SW-620 colon)?
A: > 35.1 µM

Q: And the TGI (TK-10 renal)?
A: 30.5 µM

Q: What about the TGI (U251 CNS) of the same compound?
A: > 33.8 µM

Q: And the TGI (UACC-257 melanoma)?
A: 26.8 µM

Q: And the TGI (UACC-62 melanoma)?
A: > 39.7 µM

Q: And the TGI (UO-31 renal)?
A: 6.66 µM
